From US11040986B2, “Crystalline forms of cabotegravir sodium” (Sandoz AG, priority 2017, dated 2021)

How the values were obtained:
[1] = equilibrium slurry experiments starting from cabotegravir sodium Form A (solvent-mediated phase transformation, PXRD); assay type: physicochemical; conditions: for Result (PXRD): 7 days
Method: […] After 7 days, the solids were collected by filtration dried under vacuum (30 mbar) at room temperature for 20 hours and analyzed by PXRD.
PXRD was performed with a PANalytical X'Pert PRO diffractometer equipped with a theta/theta coupled goniometer in transmission geometry, Cu-Kalpha1,2 radiation (wavelength 0.15419 nm) with a focusing mirror and a solid state PIXcel detector. Diffractograms were recorded at a tube voltage of 45 kV and a tube current of 40 mA, applying a stepsize of 0.013° 2-theta with 40 s per step (255 channels) in the angular range of 2° to 40° 2-theta at ambient conditions. A typical precision of the 2-theta values is in the range of ±0.2° 2-Theta, preferably of ±0.1° 2-Theta. Thus, the diffraction peak of cabotegravir sodium Form B that appears for example at 6.8° 2-Theta can appear in the range of from 6.6 to 7.0° 2-Theta, preferably in the range of from 6.7 to 6.9° 2-Theta on most X-ray diffractometers under standard conditions. […]
[…] The suspension was vigorously stirred at 60° C. using a magnetic stirrer. After 2 days, the solid was collected by filtration dried under vacuum (30 mbar) at room temperature for 20 hours and analyzed by PXRD, which confirmed the receipt of Form C.

[2] = competitive slurry experiments with Form A and Form B in 2-butanone; assay type: physicochemical; conditions: for Sample 1 after 1 day (solid form) / Sample 2 after 2 days (solid form) / Sample 3 after 6 days (solid form) / Result (solid form after slurrying): 2-butanone; for Result (solid form after slurrying): equal amounts of Form A and Form B
Method: Competitive slurry experiments in 2-butanone were performed by suspending equal amounts of Form A (approximately 50 mg, prepared according to Reference Example 1 herein) and Form B (approximately 50 mg, prepared according to Example 1 herein) in 2-butanone (4 mL) and vigorously stirring the obtained suspension using a magnetic stirrer at 20° C.; 40° C., 60° C. and 80° C. respectively.

With `C[C@H]1CO[C@@H]2Cn3cc(C(=O)NCc4ccc(F)cc4F)c(=O)c([O-])c3C(=O)N12.[Na+]` [Form A, cabotegravir sodium] the “Result (PXRD)” value ([1]; 1,4-dioxane 5 mL, room temperature) was “Form B”, the “Result (solid form after slurrying)” value ([1]; 1,4-dioxane, room temperature) was “Form B” and the “Result (PXRD)” value ([1]; 2-butanone 5 mL, room temperature) was “Form B”. For the same molecule, the “Result (solid form after slurrying)” value ([1]; 2-butanone, 20° C.) was “Form B”, the “Result (solid form after slurrying)” value ([1]; 2-butanone, 40° C.) was “Form B” and the “Result (solid form after slurrying)” value ([1]; 2-butanone, 60° C.) was “Form B”. The “Result (solid form after slurrying)” value ([1]; 2-butanone, 80° C.) was “Form B”, the “Result (solid form after slurrying)” value ([1]; 2-butanone, room temperature) was “Form B” and the “Result (PXRD)” value ([1]; acetone 5 mL, room temperature) was “Form B”. The “Result (solid form after slurrying)” value ([1]; acetone, room temperature) was “Form B”, the “Result (PXRD)” value ([1]; methyl acetate 5 mL, room temperature) was “Form B” and the “Result (solid form after slurrying)” value ([1]; methyl acetate, room temperature) was “Form B”. The “solid form by PXRD after slurrying” value ([1]; methylisobutyl ketone 20 mL, 60° C., 2 days) was “Form C”, the “Result (solid form after slurrying)” value ([1]; methylisobutyl ketone, 60° C.) was “Form C” and the “Result (solid form after slurrying)” value ([1]; methylisobutyl ketone, room temperature) was “Form C”. For the same molecule, the “Result (PXRD)” value ([1]; tetrahydrofuran 5 mL, room temperature) was “Form B” and the “Result (solid form after slurrying)” value ([1]; tetrahydrofuran, room temperature) was “Form B”.

With `C[C@H]1CO[C@@H]2Cn3cc(C(=O)NCc4ccc(F)cc4F)c(=O)c([O-])c3C(=O)N12.[Na+]` [Form A + Form B, cabotegravir sodium] the “Sample 1 after 1 day (solid form)” value ([2]; 20° C.) was “Form B”, the “Sample 2 after 2 days (solid form)” value ([2]; 20° C.) was “Form B” and the “Sample 3 after 6 days (solid form)” value ([2]; 20° C.) was “Form B”. The “Sample 1 after 1 day (solid form)” value ([2]; 40° C.) was “Form B”, the “Sample 2 after 2 days (solid form)” value ([2]; 40° C.) was “Form B” and the “Sample 3 after 6 days (solid form)” value ([2]; 40° C.) was “Form B”. The “Sample 1 after 1 day (solid form)” value ([2]; 60° C.) was “Form B”, the “Sample 2 after 2 days (solid form)” value ([2]; 60° C.) was “Form B” and the “Sample 3 after 6 days (solid form)” value ([2]; 60° C.) was “Form B”. The “Sample 1 after 1 day (solid form)” value ([2]; 80° C.) was “Form B”, the “Sample 2 after 2 days (solid form)” value ([2]; 80° C.) was “Form B” and the “Sample 3 after 6 days (solid form)” value ([2]; 80° C.) was “Form B”. For the same molecule, the “Result (solid form after slurrying)” value ([2]; 20° C.) was “Form B”, the “Result (solid form after slurrying)” value ([2]; 40° C.) was “Form B” and the “Result (solid form after slurrying)” value ([2]; 60° C.) was “Form B”. For the same molecule, the “Result (solid form after slurrying)” value ([2]; 80° C.) was “Form B”.

For `C[C@H]1CO[C@@H]2Cn3cc(C(=O)NCc4ccc(F)cc4F)c(=O)c([O-])c3C(=O)N12.[Na+]` [Form B, cabotegravir sodium], the “thermodynamic stability relative to Form A” value ([2]; competitive slurry in 2-butanone, 20 to 80° C.) was “thermodynamically more stable than Form A” and the “thermodynamic stability relative to Form A” value ([1]; slurry experiments of Table 1, at least under the tested conditions) was “thermodynamically more stable than prior art Form A”.
